This note sets out measurements from ChEMBL document CHEMBL1136933 (J Med Chem, 2009).

Assay [1] addresses T1, Muscarinic acetylcholine receptor M1 (Rattus norvegicus) (UniProt P08482).
T1 sequence (whole entry): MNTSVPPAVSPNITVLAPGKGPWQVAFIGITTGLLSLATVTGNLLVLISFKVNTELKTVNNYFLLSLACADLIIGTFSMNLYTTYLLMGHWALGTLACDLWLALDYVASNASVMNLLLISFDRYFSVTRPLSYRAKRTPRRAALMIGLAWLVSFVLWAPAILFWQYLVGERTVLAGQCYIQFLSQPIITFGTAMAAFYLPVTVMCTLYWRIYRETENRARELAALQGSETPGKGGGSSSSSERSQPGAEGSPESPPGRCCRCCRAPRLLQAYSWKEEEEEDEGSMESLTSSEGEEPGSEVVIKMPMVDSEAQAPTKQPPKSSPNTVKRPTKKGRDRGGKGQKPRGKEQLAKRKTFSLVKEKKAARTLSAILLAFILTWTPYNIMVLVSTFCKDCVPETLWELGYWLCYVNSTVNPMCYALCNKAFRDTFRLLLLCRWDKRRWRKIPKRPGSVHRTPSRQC
As to the kind of experiment: Activation of rat muscarinic M1 receptor expressed in CHO cells co-expressing Gq protein assessed as potentiation of acetylcholine-induced intracellular Ca2+ mobilization at 30 uM relative to acetylcholine. The assay is classed as functional, cell-based.

For assay [2], the target named is T2, Muscarinic acetylcholine receptor M5 (Homo sapiens) (UniProt P08912).
T2 sequence (whole entry): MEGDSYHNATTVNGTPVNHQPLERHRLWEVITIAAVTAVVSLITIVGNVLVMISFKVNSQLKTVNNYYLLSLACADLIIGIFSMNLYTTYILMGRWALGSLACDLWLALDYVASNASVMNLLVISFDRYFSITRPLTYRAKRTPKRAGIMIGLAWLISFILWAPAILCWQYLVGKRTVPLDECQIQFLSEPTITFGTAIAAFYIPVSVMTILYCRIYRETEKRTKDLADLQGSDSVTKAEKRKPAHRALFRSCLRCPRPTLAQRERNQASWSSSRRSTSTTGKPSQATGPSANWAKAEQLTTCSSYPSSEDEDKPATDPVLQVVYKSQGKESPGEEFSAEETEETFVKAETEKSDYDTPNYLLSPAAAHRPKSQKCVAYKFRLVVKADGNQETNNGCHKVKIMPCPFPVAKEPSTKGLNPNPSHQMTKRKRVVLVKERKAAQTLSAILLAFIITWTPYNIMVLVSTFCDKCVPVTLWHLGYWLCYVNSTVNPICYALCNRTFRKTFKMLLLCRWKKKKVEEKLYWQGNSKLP
As to the kind of experiment: Activation of human muscarinic M5 receptor expressed in CHO cells coexpressing Gq protein assessed as potentiation of acetylcholine-induced intracellular Ca2+ mobilization at 30 uM relative to acetylcholine. The assay is classed as functional, cell-based.

Turning to `Cc1ccc2c(c1)C(=O)C(=O)N2Cc1ccccc1C`, the %max in assay [1] came out at 20.2%; in assay [2], 29.9%.
The matching figures for `O=C1C(=O)N(Cc2ccccc2Cl)c2c(Cl)ccc(Cl)c21`: 13.1% and 18.9%.
For `O=C1C(=O)N(Cc2ccc(Br)cc2)c2ccc(Cl)cc21` the same measures were 26.1% and 32%.
Take `O=C1C(=O)N(Cc2ccccc2F)c2c(Cl)cccc21`: the %max worked out at 50.4% in assay [1] and 49.5% in assay [2].
As to `Cc1ccccc1CN1C(=O)C(=O)c2c(Cl)ccc(Cl)c21`, the %max came to 13.7% in assay [1] and 16.4% in assay [2].
For `O=C1C(=O)N(Cc2ccccc2Cl)c2ccccc21` the same measures were 43.4% and 42%.
The matching figures for `Cc1ccccc1CN1C(=O)C(=O)c2ccccc21`: 43.2% and 36.3%.
As for `O=C1C(=O)N(Cc2ccccc2F)c2ccccc21`, the %max came out at 38.9% in assay [1] and 24.5% in assay [2].
For `O=C1C(=O)N(Cc2ccc(OC(F)(F)F)cc2)c2ccc(F)cc21` the same measures were 59.8% and 58.4%.
For `O=C1C(=O)N(Cc2ccc(OC(F)(F)F)cc2)c2c(F)cccc21` the same measures were 51.8% and 57.7%.
As for `O=C1C(=O)N(Cc2ccc(F)cc2F)c2ccc(F)cc21`, the %max stood at 47.3% in assay [1] and 60.3% in assay [2].
For `O=C1C(=O)N(Cc2ccc(Br)cc2F)c2ccccc21` the same measures were 49.2% and 48.5%.
`COc1cccc(CN2C(=O)C(=O)c3cc(C)ccc32)c1`: the results for the %max in assay [1] and in assay [2] were 14.5% and 29.6%, respectively.
For the molecule `O=C1C(=O)N(Cc2ccccc2C(F)(F)F)c2c(Cl)cccc21`, the %max in assay [1] came out at 31.1%; in assay [2], 14%.
For `O=C1C(=O)N(Cc2ccc(OC(F)(F)F)cc2)c2ccccc21` the same measures were 54.7% and 60.5%.
For `O=C1C(=O)N(Cc2ccccc2C(F)(F)F)c2c(Cl)ccc(Cl)c21` the same measures were 21.1% and 16%.
Take `O=C1C(=O)N(Cc2ccc(F)cc2F)c2ccc(OC(F)(F)F)cc21`: the %max in assay [1] was 25.9%; in assay [2], 61.9%.
For `Cc1ccc2c(c1)C(=O)C(=O)N2Cc1ccccc1C(F)(F)F` the same measures were 17.8% and 30.6%.
For `COc1cccc(CN2C(=O)C(=O)c3cc(F)ccc32)c1` the same measures were 32.3% and 41.6%.
In the case of `O=C1C(=O)N(Cc2ccc(Br)cc2F)c2ccc(F)cc21`, the %max was found to be 70.5% in assay [1] and 64% in assay [2].
For `Cc1ccc2c(c1)C(=O)C(=O)N2Cc1ccc(Br)cc1` the same measures were 19% and 24.1%.
In the case of `COc1cccc(CN2C(=O)C(=O)c3cccc(F)c32)c1`, the %max in assay [1] was 51.1%; in assay [2], 52%.
The matching figures for `O=C1C(=O)N(Cc2ccccc2F)c2c(F)cccc21`: 42.7% and 42.4%.
As for `O=C1C(=O)N(Cc2ccc(F)cc2F)c2c(F)cccc21`, the %max in assay [1] came out at 64.4%; in assay [2], 68.9%.
For `O=C1C(=O)N(Cc2ccc(OC(F)(F)F)cc2)c2c(Cl)ccc(Cl)c21` the same measures were 16% and 23.2%.
`O=C1C(=O)N(Cc2ccc(Br)cc2F)c2c(Cl)ccc(Cl)c21`: the %max in assay [1] turned out to be 9.93%; in assay [2], 12.4%.
For `Cc1ccccc1CN1C(=O)C(=O)c2cccc(Cl)c21` the same measures were 32.8% and 32.6%.
Turning to `Cc1cccc2c1N(Cc1c(F)cccc1F)C(=O)C2=O`, the %max in assay [1] came out at 17.3%; in assay [2], 14.4%.
`COc1cccc(CN2C(=O)C(=O)c3ccccc32)c1`: the values for the %max in assay [1] and in assay [2] were 19.4% and 28%, respectively.
Consider `COc1ccc(CN2C(=O)C(=O)c3c(Cl)ccc(Cl)c32)cc1`, for which the %max in assay [1] is 18.6%; in assay [2] it was 11.7%.
Take `O=C1C(=O)N(Cc2ccccc2C(F)(F)F)c2ccc(OC(F)(F)F)cc21`: the results for the %max in assay [1] and in assay [2] were 22.6% and 56.5%, respectively.
With `O=C1C(=O)N(Cc2ccc(OC(F)(F)F)cc2)c2c(Cl)cccc21`, the %max in assay [1] stood at 43.6%; in assay [2], 72.3%.
For `O=C1C(=O)N(Cc2ccc(C(F)(F)F)cc2)c2ccc(Cl)cc21`, the %max in assay [1] is 44.1%; in assay [2] it was 67.4%.
On to `COc1ccc(CN2C(=O)C(=O)c3cc(C)ccc32)cc1`, for which the %max in assay [1] stood at 14.1%; in assay [2], 21.2%.
In the case of `O=C1C(=O)N(Cc2c(F)cccc2F)c2c(Cl)ccc(Cl)c21`, the %max in assay [1] is 16.4%; in assay [2], 12.2%.
For `COc1cccc(CN2C(=O)C(=O)c3cccc(Cl)c32)c1` the same measures were 46.9% and 38.7%.
The matching figures for `O=C1C(=O)N(Cc2ccccc2Cl)c2ccc(Cl)cc21`: 21.3% and 44.4%.
The matching figures for `O=C1C(=O)N(Cc2ccc(Br)cc2F)c2c(F)cccc21`: 39.2% and 46.3%.
With `O=C1C(=O)N(Cc2ccccc2F)c2ccc(OC(F)(F)F)cc21`, the %max in assay [1] is 11.3%; in assay [2], 51.8%.
The matching figures for `O=C1C(=O)N(Cc2ccccc2F)c2c(Cl)ccc(Cl)c21`: 12.4% and 14.7%.
The matching figures for `COc1ccc(CN2C(=O)C(=O)c3cc(F)ccc32)cc1`: 41.1% and 38.3%.
Regarding `Cc1ccc2c(c1)C(=O)C(=O)N2Cc1ccc(Br)cc1F`, the %max was 22.3% in assay [1] and 27.8% in assay [2].
The matching figures for `O=C1C(=O)N(Cc2ccc(Br)cc2)c2c(Cl)cccc21`: 29.9% and 44.3%.
The matching figures for `O=C1C(=O)N(Cc2ccc(Br)cc2)c2ccc(OC(F)(F)F)cc21`: 13.2% and 47.6%.
The matching figures for `Cc1ccc2c(c1)C(=O)C(=O)N2Cc1ccccc1Cl`: 16.8% and 24.3%.
Take `O=C1C(=O)N(Cc2ccccc2F)c2ccc(F)cc21`: the %max worked out at 40.1% in assay [1] and 46.2% in assay [2].
The matching figures for `O=C1C(=O)N(Cc2c(F)cccc2F)c2ccc(Cl)cc21`: 27.3% and 31.8%.
The matching figures for `O=C1C(=O)N(Cc2ccccc2Cl)c2c(F)cccc21`: 18.5% and 20.3%.
For `O=C1C(=O)N(Cc2ccccc2C(F)(F)F)c2ccccc21` the same measures were 37.9% and 40.2%.
Turning to `Cc1ccccc1CN1C(=O)C(=O)c2cc(F)ccc21`, the %max was determined as 37.7% in assay [1] and 40.8% in assay [2].
On to `O=C1C(=O)N(Cc2ccc(F)cc2F)c2c(Cl)ccc(Cl)c21`, for which the %max stood at 17.2% in assay [1] and 19.1% in assay [2].
The matching figures for `COc1ccc(CN2C(=O)C(=O)c3cc(Cl)ccc32)cc1`: 20.3% and 32.6%.
For `O=C1C(=O)N(Cc2c(F)cccc2F)c2ccc(F)cc21`, the %max in assay [1] came out at 27.6%; in assay [2], 31.1%.
For `Cc1ccc2c(c1)C(=O)C(=O)N2Cc1ccc(C(F)(F)F)cc1`, the %max turned out to be 22.9% in assay [1] and 35.5% in assay [2].
As to `O=C1C(=O)N(Cc2c(F)cccc2F)c2c(Cl)cccc21`, the %max in assay [1] came to 38.8%; in assay [2], 23.6%.
